What was measured:
Vitamin D3 receptor = molecular target: T1, Vitamin D3 receptor (Rattus norvegicus, UniProt P13053); assay: Displacement of [3H]1alpha,25-(OH)2D3 from full-length recombinant rat VDR by scintillation counter
T1 sequence (P13053 whole entry): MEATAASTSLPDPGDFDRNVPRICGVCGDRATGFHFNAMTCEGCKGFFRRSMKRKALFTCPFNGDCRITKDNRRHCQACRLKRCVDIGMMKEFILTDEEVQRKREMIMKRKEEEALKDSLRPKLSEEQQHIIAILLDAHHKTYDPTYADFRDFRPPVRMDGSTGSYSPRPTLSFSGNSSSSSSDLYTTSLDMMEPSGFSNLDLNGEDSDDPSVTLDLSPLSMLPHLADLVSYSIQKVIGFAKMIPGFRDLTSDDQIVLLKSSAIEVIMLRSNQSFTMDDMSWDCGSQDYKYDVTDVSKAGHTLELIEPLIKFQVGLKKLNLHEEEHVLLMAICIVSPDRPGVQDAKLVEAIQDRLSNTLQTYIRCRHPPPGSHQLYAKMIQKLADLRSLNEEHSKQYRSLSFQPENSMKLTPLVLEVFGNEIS

HL-60 [1] = assay: Induction of human HL60 cell differentiation assessed as differentiation from promyelocytes to monocytes by NBT assay; type: functional; conditions: read-out: ED50 (the source's name)
HL-60 [2] = assay: Potency index, ratio ED50 of 1alpha,25-(OH)2D3 to ED50 of compound for induction of human HL60 cell differentiation; type: functional
[3] = molecular target: T2, Vitamin D3 receptor (Rattus norvegicus) (UniProt P13053); assay: Transactivation of VDR in rat osteosarcoma cells assessed as 24-hydroxylase transcriptional activity by luciferase reporter gene assay; type: cell-based
T2 sequence (whole entry): T1 sequence (P13053 whole entry)

Rattus norvegicus [4] = assay: Induction of bone mobilization activity in weaning Sprague-Dawley rat assessed as increase in serum calcium level at 780 pmol, ip for 4 consecutive dose at an interval of 24 hrs measured 24 hrs after last dose (reference value: 4.4 to 4.5 mg/dl); type: functional
Rattus norvegicus [5] = assay: Induction of bone mobilization activity in weaning Sprague-Dawley rat assessed as increase in serum calcium level at 260 pmol, ip for 4 consecutive dose at an interval of 24 hrs measured 24 hrs after last dose (reference value: 4.4 to 4.5 mg/dl); type: functional
Rattus norvegicus [6] = assay: Induction of bone mobilization activity in weaning Sprague-Dawley rat assessed as increase in serum calcium level at 32 pmol, ip for 4 consecutive dose at an interval of 24 hrs measured 24 hrs after last dose (reference value: 4.4 to 4.5 mg/dl); type: functional
Rattus norvegicus [7] = assay: Induction of intestinal calcium transport in weaning Sprague-Dawley rat assessed as ratio of calcium level in serosal to mucosal at 780 pmol, ip for 4 consecutive dose at an interval of 24 hrs measured 24 hrs after last dose (reference value: 3.7 to 4.8); type: functional
Rattus norvegicus [8] = assay: Induction of intestinal calcium transport in weaning Sprague-Dawley rat assessed as ratio of calcium level in serosal to mucosal at 260 pmol, ip for 4 consecutive dose at an interval of 24 hrs measured 24 hrs after last dose (reference value: 3.7 to 4.8); type: functional
Rattus norvegicus [9] = assay: Induction of intestinal calcium transport in weaning Sprague-Dawley rat assessed as ratio of calcium level in serosal to mucosal at 32 pmol, ip for 4 consecutive dose at an interval of 24 hrs measured 24 hrs after last dose (reference value: 3.7 to 4.8); type: functional
Rattus norvegicus [10] = assay: Induction of bone mobilization activity in weaning Sprague-Dawley rat assessed as increase in serum calcium level at 16 pmol, ip for 4 consecutive dose at an interval of 24 hrs measured 24 hrs after last dose (reference value: 4.4 to 4.5 mg/dl); type: functional
Rattus norvegicus [11] = assay: Induction of bone mobilization activity in weaning Sprague-Dawley rat assessed as increase in serum calcium level at 87 pmol, ip for 4 consecutive dose at an interval of 24 hrs measured 24 hrs after last dose (reference value: 4.4 to 4.5 mg/dl); type: functional
Rattus norvegicus [12] = assay: Induction of intestinal calcium transport in weaning Sprague-Dawley rat assessed as ratio of calcium level in serosal to mucosal at 16 pmol, ip for 4 consecutive dose at an interval of 24 hrs measured 24 hrs after last dose (reference value: 3.7 to 4.8); type: functional

Structure (SMILES)	Ki (Vitamin D3 receptor)	EC50 (HL-60 [1])	Ratio ED50 (HL-60 [2])	ED50 [3]	Activity (Rattus norvegicus [4])	Activity (Rattus norvegicus [5])	Activity (Rattus norvegicus [6])	Ratio (Rattus norvegicus [7])	Ratio (Rattus norvegicus [8])	Ratio (Rattus norvegicus [9])	Activity (Rattus norvegicus [10])	Activity (Rattus norvegicus [11])	Ratio (Rattus norvegicus [12])
C[C@H](CCC(F)(F)C(C)(C)O)[C@H]1CC[C@H]2/C(=C/C=C3C[C@@H](O)C[C@H](O)C3)CCC[C@]12C	0.02 nM	0.05 nM	60	0.04 nM	5.9 mg/dL	4.9 mg/dL	4.9 mg/dL	7.7	6.9	9.4	–	–	–
C=C1/C(=C\C=C2/CCC[C@]3(C)[C@@H]([C@H](C)CCCC(C)(C)O)CC[C@@H]23)C[C@@H](O)C[C@@H]1O [CALCITRIOL]	–	–	–	–	7.6 mg/dL	–	–	–	–	–	5.3 mg/dL	6.6 mg/dL	–
C=C1[C@H](O)CC(=C/C=C2\CCC[C@]3(C)[C@@H]([C@@H](C)CCC(F)(F)C(C)(C)O)CC[C@@H]23)C[C@H]1O	0.03 nM	0.03 nM	100	0.02 nM	9.8 mg/dL	9.5 mg/dL	–	8.7	12.4	–	5.8 mg/dL	–	6.6
C=C1[C@H](O)CC(=C/C=C2\CCC[C@]3(C)[C@@H]([C@H](C)CCC(F)(F)C(C)(C)O)CC[C@@H]23)C[C@H]1O	0.04 nM	0.1 nM	30	0.01 nM	11.2 mg/dL	9.4 mg/dL	6 mg/dL	16.4	11.6	11.7	–	–	–
C=C1[C@H](O)CC(=C/C=C2\CCC[C@]3(C)[C@@H]([C@H](C)CCCC(C)(C)O)CC[C@@H]23)C[C@H]1O	0.03 nM	0.02 nM	150	0.007 nM	–	–	–	–	–	–	–	–	–
C[C@@H](CCC(F)(F)C(C)(C)O)[C@H]1CC[C@H]2/C(=C/C=C3C[C@@H](O)C[C@H](O)C3)CCC[C@]12C	0.03 nM	0.06 nM	50	0.04 nM	9.8 mg/dL	8.5 mg/dL	–	11.5	8.8	–	5.8 mg/dL	–	6.6

— ChEMBL document CHEMBL3745627, “A Methylene Group on C-2 of 24,24-Difluoro-19-nor-1α,25-dihydroxyvitamin D3 Markedly Increases Bone Calcium Mobilization in Vivo” (J Med Chem, 2015)
